The values that follow come from patent publication US8420012B2, “Use of monochlorourea to treat industrial waters” (Hercules Incorporated, priority 2009, dated 2013).

Series [1] relates to Pseudomonas aeruginosa. In words: Log10 reduction of viable P. aeruginosa in PBS after exposure to biocide (Example 8). Format: cell-based. Conditions: average of three. Here is the method:
The efficacy of dimethyl monochlorourea (DMCU) as a biocide, as synthesized in Example 5, was tested against the bacterium Pseudomonas aeruginosa. The Hach DPD chlorine test (Hach Company, Loveland, Colo.) was used to measure the total available chlorine concentrations of each biocide tested. Concentrations are reported in units of milligrams per liter as Cl2. P. aeruginosa was grown overnight in Trypticase Soy Broth at 37° C. The culture was split into aliquots of equal volume and suspended in physiologically buffered saline (PBS). […] The cultures were then evaluated by measuring viable cell counts after exposure to the biocides.

Series [2] is described as follows: Stability of dimethylchlorourea aqueous solutions at different pH and temperature by UV-Vis Spectroscopy. Format: physicochemical. From the text:
The stability of dimethylchlorourea was also examined under a variety of different conditions including pH and temperature. […] In the following table the initial concentration C0, the final concentration Cf, the final time tf and the half life t½, are given.

Series [3] is described as follows: Free vs. total chlorine (Hach DPD) of 1000 ppm solutions in synthetic hard water. Format: physicochemical. Particulars: synthetic hard water 250 ppm hardness, 35° C. The method, then: Differences exist between monochlorourea and sodium hypochlorite, namely, sodium hypochlorite is a free chlorine generating biocide while monochlorourea is not. Free and total chlorine are measured using the DPD reagents from the Hach Company. The test is a colorimetric test in which more intense color development results as more oxidizing chlorine is present in the sample. The rate at which the dye reacts with the oxidizing chemical depends on whether the chlorine is free or bound. Total chlorine includes both free and bound chlorine.
The rate at which the dye reacts with total chlorine is accelerated by the addition of iodide to the test. This differentiates the free and total chlorine. The iodide reacts rapidly with bound oxidizing chlorine to form iodine and chloride. The iodine, a free oxidizing halogen, reacts very rapidly with the DPD dye.
One thousand ppm (as total Cl2) solutions of monochlorourea and sodium hypochlorite were prepared in synthetic hard water with 250 ppm hardness. Total and free chlorine readings were taken at 0 minutes, 30 minutes, 2 hours, and 4 hours. Untreated hard water solutions were used as blanks. The samples were stored at 35° C.+/−2° C. with mild stirring. pH values are provided as a reference points for the conditions of the chlorine species at the various test times.
Table 3 compares duplicate samples of sodium hypochlorite and monochlorourea. Significant differences exist between the free and total chlorine values of these chemicals. The release of free chlorine from monochlorourea is an energetically unfavorable reaction. Monochlorourea is a combined chlorine species that functions to kill bacteria not as a donor of free chlorine, but as a biocide itself.
Made-up 1 Liter sample of synthetic hard water with 250 ppm hardness.
Took 100 mL aliquots and set up duplicate samples of biocides at least 1,000 ppm based on total Chlorine readings.
Monitored pH, free chlorine and total chlorines at timed intervals of—0 min, 30 min, 2 hours, and 4 hours,
Monitored un-treated (blank) hard water at time 0 to serve as baseline.
Between sampling stored all samples in 35° C.+/−2° C. Heater/shaker with mild stirring.

The subject of series [4] is P. aeruginosa. As to the kind of experiment: Viability of P. aeruginosa inoculated in paper mill process water, plated after 60 minutes. Format: cell-based, Pseudomonas aeruginosa. Conditions: papermill process water, average of three. Here is the method:
Paper mill process water samples were collected from a paper mill producing super calendered paper Samples were inoculated with P. aeruginosa, and then dosed with monochlorourea and sodium hypochlorite and plated after 60 minutes.

Series [5] is described as follows: Stability in the presence of chlorine demand (0.1× nutrient broth), total chlorine by Hach DPD. Particulars: 0.1× nutrient broth, initial 5 ppm chlorine, 37° C. Format: physicochemical. The method, then: This can be seen in Table 4 below. 20 mL aliquots of a 0.1× nutrient broth were used and the active species added such that the initial concentration of each was equivalent to 5 ppm chlorine as measured by the Hach. To prepare the nutrient broth Difco Nutrient Broth (8 grams) was dissolved in 1 L of deionized water, and subsequently diluted to 0.1× of the initial concentration prior to being autoclaved at 121° C. for 15 minutes. 100 mL solutions of each of the actives were made, and the concentration was measured using standard Hach test procedures on a BetzDearborn DR 2010 Spectrophotometer. At each time point a 1:10 dilution of the solution in DI water was made and placed in the spectrophotometer cell. Hach Permachem DPD Total Chlorine Reagent was added and the cell was placed into the spectrophotometer. The ppm of Cl2 was measured at 0, 1, 3, 6, 24, and 48 hours. A fresh dilution was made at each time point, if necessary, and the bottles of solution were placed in a shaking incubator at 37° C. in between runs. Dimethyl monochlorourea is notated as DMCU. Bis-hydroxymethyl chlorourea is BHMCU.

For series [6], the system named is Pseudomonas aeruginosa. In words: Viable cell counts of P. aeruginosa in PBS after 60 minutes exposure to biocide (Example 6). Particulars: average of three. Format: cell-based. Here is the method: The efficacy of monochlorourea as a biocide, as synthesized in Example 1, was tested against the bacterium Pseudomonas aeruginosa. The Hach DPD chlorine test (Hach Company, Loveland, Colo.) was used to measure the total available chlorine concentrations of each biocide tested. Concentrations are reported in units of milligrams per liter as Cl2. P. aeruginosa was grown overnight in Trypticase Soy Broth at 37° C. The culture was split into aliquots of equal volume, suspended in physiologically buffered saline (PBS). In this example, the cultures were exposed to […], 5.0 mg/L, 10.0 mg/L, and 15.0 mg/L of biocide for 60 minutes. The cultures were then evaluated by measuring viable cell counts after exposure to the biocides.

Where [7] appears, read: Time = 30 min, listed as Bleach-1.
[8] abbreviates: Time = 30 min, listed as Bleach-2.
Where [9] appears, read: Time = 2 hours, listed as Bleach-1.
Where [10] appears, read: Time = 2 hours, listed as Bleach-2.
[11] abbreviates: Time = 4 hours, listed as Bleach-1.
[12] abbreviates: Time = 4 hours, listed as Bleach-2.

As for `CNC(=O)N(C)Cl` [DMCU, N-chloro-N,N′-dimethylurea], the “log10 reduction of viable cfu/mL (LR)” value in series [1] (0.3 mg/L) came out at 0.45 log10; in series [1] (0.9 mg/L), 1.49 log10; in series [1] (1.5 mg/L), 3.99 log10. In addition, the “half life t½” value came out at 4 days in series [2] (50 ° C., pH 3); 82 days in series [2] (50 ° C., pH 5); 0.417 days in series [2] (50 ° C., pH 12); 0.75 days in series [2] (75 ° C., pH 3); 14 days in series [2] (75 ° C., pH 7); 0.17 days in series [2] (75 ° C., pH 12). For the same compound, the “half life t½” value stood at 41 days in series [2] (RT, pH 2); 54 days in series [2] (RT, pH 3); 84 days in series [2] (RT, pH 5); 104 days in series [2] (RT, pH 7); 106 days in series [2] (RT, pH 9); 2 days in series [2] (RT, pH 12). Also, the “final concentration Cf” value in series [2] (50 ° C., pH 3, C0 575 ppm, tf 1 Days) is 491 ppm; in series [2] (50 ° C., pH 5, C0 576 ppm, tf 3 Days) it was 561 ppm; in series [2] (50 ° C., pH 12, C0 478 ppm, tf 6 Hours), 315 ppm; in series [2] (75 ° C., pH 3, C0 576 ppm, tf 24 Hours), 231 ppm; in series [2] (75 ° C., pH 7, C0 590 ppm, tf 1 Days), 562 ppm; in series [2] (75 ° C., pH 12, C0 423 ppm, tf 24 Hours), 4 ppm. Also, the “final concentration Cf” value was 220 ppm in series [2] (RT, pH 2, C0 393 ppm, tf 34 Days); 402 ppm in series [2] (RT, pH 3, C0 577 ppm, tf 28 Days); 456 ppm in series [2] (RT, pH 5, C0 603 ppm, tf 34 Days); 474 ppm in series [2] (RT, pH 7, C0 590 ppm, tf 33 Days); 475 ppm in series [2] (RT, pH 9, C0 589 ppm, tf 33 Days); 280 ppm in series [2] (RT, pH 12, C0 423 ppm, tf 1 Days). In addition, the half-life in series [2] (aqueous solution, acidic and basic conditions at room temperature, read-out: half lives) lay in the range of 2 to 100 days.

As for `[Na+].[O-]Cl` [NaOCl, Sodium Hypochlorite], the “log10 reduction of viable cfu/mL (LR)” value in series [1] (1 mg/L) stood at 5.3 log10; in series [1] (3 mg/L), 5.4 log10; in series [1] (5 mg/L), 6.7 log10. In addition, the “Free Cl” value in series [3] (Time = 0, listed as Bleach-1) came to 900 ppm; in series [3] (Time = 0, listed as Bleach-2), 950 ppm; in series [3] (setting [7]), 860 ppm; in series [3] (setting [8]), 880 ppm; in series [3] (setting [9]), 810 ppm; in series [3] (setting [10]), 840 ppm. In addition, the “Free Cl” value in series [3] (setting [11]) is 840 ppm; in series [3] (setting [12]) it was 950 ppm. The “Tot Cl” value is listed as 950 ppm in series [3] (Time = 0, listed as Bleach-1); 1060 ppm in series [3] (Time = 0, listed as Bleach-2); 890 ppm in series [3] (setting [7]); 1020 ppm in series [3] (setting [8]); 920 ppm in series [3] (setting [9]); 1010 ppm in series [3] (setting [10]). Also, the “Tot Cl” value in series [3] (setting [11]) is listed as 940 ppm; in series [3] (setting [12]) it was 1040 ppm. Also, the “log10 of viable cfu/mL” value in series [4] (1.0 mg/l) came out at 9.9 log10 cfu/mL; in series [4] (3.0 mg/l) it was 9.8 log10 cfu/mL; in series [4] (5.0 mg/l) it was 8.7 log10 cfu/mL; in series [4] (10.0 mg/l) it was 4.5 log10 cfu/mL. The “Stability: total chlorine remaining relative to initial” value in series [5] (0 hr) was 100%; in series [5] (3 hrs) it was 22%; in series [5] (6 hrs) it was 6%; in series [5] (24 hrs) it was 2%; in series [5] (48 hrs), 1%. Moreover, the “log10 of viable cfu/mL remaining after exposure” value in series [6] (5.0 mg/L as Cl2, 60 minutes) was determined as 9.7 log10 cfu/mL; in series [6] (10.0 mg/L as Cl2, 60 minutes), 9.1 log10 cfu/mL; in series [6] (15.0 mg/L as Cl2, 60 minutes) it was 4.4 log10 cfu/mL.

Take `NCl` [monochloramine]: the “Stability: total chlorine remaining relative to initial” value in series [5] (0 hr) was 100%; in series [5] (3 hrs) it was 24%; in series [5] (6 hrs) it was 6%; in series [5] (24 hrs) it was 2%; in series [5] (48 hrs), 1%.
